Values joined by “and” are separate entries in the source; they are usually repeats but may differ in a detail not shown here. Identical values can stand only once.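 Grown in 96-well plates, cells were treated for 48 hours with each compound at five concentrations. Insufficient inhibition: endpoint recorded as highest concentration tested. GI50: concentration for 50% inhibition of growth. The concentration for full growth arrest is given as TGI.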
Key:
Experiment in all cases: DTP human tumour cell line panel, 48 h
IGROV1 ovarian = test system: IGROV1 ovarian
HOP-92 NSCLC = test system: HOP-92 NSCLC
CAKI-1 renal = test system: CAKI-1 renal
SW-620 colon = test system: SW-620 colon
SF-268 CNS = test system: SF-268 CNS
SNB-19 CNS = test system: SNB-19 CNS
SR leukemia = test system: SR leukemia
MDA-MB-231 breast = test system: MDA-MB-231 breast

Structure (SMILES)	GI50 (IGROV1 ovarian) [µM]	TGI (IGROV1 ovarian)	GI50 (HOP-92 NSCLC)	TGI (HOP-92 NSCLC)	GI50 (CAKI-1 renal)	TGI (CAKI-1 renal)	GI50 (SW-620 colon)	TGI (SW-620 colon)	GI50 (SF-268 CNS) [µM]	TGI (SF-268 CNS)	GI50 (SNB-19 CNS) [µM]	TGI (SNB-19 CNS)	GI50 (SR leukemia)	TGI (SR leukemia) [µM]	GI50 (MDA-MB-231 breast) [µM]	TGI (MDA-MB-231 breast)
CC(C)(CO)CNC(=O)c1ccc2[nH]c(O)c(N=Nc3ccc(S(N)(=O)=O)cc3)c2c1	> 25	> 25 µM	> 25 µM	> 25 µM	> 25 µM	> 25 µM	> 25 µM	> 25 µM	> 25	> 25 µM	> 25	> 25 µM	> 25 µM	> 25	> 25	> 25 µM
Cc1cc(O)c2c(c1)C(=O)C=CC2=O		27.4 µM and 24.1 µM	2.33 µM and 2.51 µM	5.15 µM and 7.69 µM	5.57 µM and 2.21 µM	13 µM and 6.47 µM	7.3 µM and 2.67 µM	23.9 µM and 22.4 µM		48.3 µM and 31.5 µM		46.7 µM and 31.2 µM	1.14 µM and 0.33 µM			25.3 µM and 18.6 µM
CC1(C)N=C(N)N=C(N)N1c1ccc(CCC(=O)Nc2ccc(S(=O)(=O)F)cc2)cc1	0.0723	> 100 µM	5.31 µM	> 100 µM	2.33 µM	> 100 µM	0.371 µM	> 100 µM	1.31	> 100 µM	7.16	> 100 µM	0.209 µM	> 100	23.1	> 100 µM
N#CC1c2ccccc2C=CN1C(=O)CCCl (stereo unspecified)	6.68	13.8 µM	1.53 µM	3.76 µM	8.38 µM	22.7 µM	2.36 µM	6.53 µM	15.2	30.9 µM	20.1	52.9 µM	3.07 µM	26.7	8.78	23.8 µM
COc1cc(CNc2nc3cc(N)cc(N)c3nc2-c2ccccc2)cc(OC)c1	8.62	55.7 µM	1.15 µM	3.31 µM	16 µM	> 100 µM	4.45 µM	> 100 µM	5.32	> 100 µM	23.4	> 100 µM	3.84 µM	> 100	2.08	6.09 µM
CNC(=O)c1ncccc1Nc1nc(Nc2cc3c(cc2OC)CCCN3C(=O)CN(C)C)nc2[nH]ccc12	3.52	8.66 µM	0.049 µM	1.98 µM	2.74 µM	7.22 µM	0.224 µM	3.22 µM	1.46	5.4 µM	3.49	11.2 µM	0.104 µM	2.96	1.58	5.3 µM
CCN1C(=S)N(CC)C2C1NC(=S)N2/N=C/C=C/c1ccccc1OC (stereo unspecified)	0.506	> 100 µM	3.56 µM	> 76.7 µM	0.101 µM	45.9 µM	0.338 µM	> 100 µM	0.913	44.8 µM	0.48	> 100 µM	0.0833 µM		0.521	10.3 µM

— PubChem BioAssay (NCI)
